Laboratory results taken from ChEMBL document CHEMBL1141788, “Dendridine A, a bis-indole alkaloid from a marine sponge Dictyodendrilla Species” (2005).
≈ marks a conversion by molar mass, not a printed value.

Tests used:
Format in all cases: functional
Bacillus subtilis = assay: Antibacterial activity against Bacillus subtilis
Micrococcus luteus = assay: Antibacterial activity against Micrococcus luteus
Cryptococcus neoformans = assay: Antifungal activity against Cryptococcus neoformans

NCCc1c[nH]c2c(O)cc(Br)c(-c3c(Br)cc(O)c4[nH]cc(CCN)c34)c12 [DENDRIDINE A]
MIC (Bacillus subtilis): 8.3 µg/mL (≈ 16.3 µM)
MIC (Micrococcus luteus): 4.2 µg/mL (≈ 8.26 µM)
MIC (Cryptococcus neoformans): 8.3 µg/mL (≈ 16.3 µM)
